Test system: C. albicans #5
Assay type: in vivo
Experimental: Five-week-old female CD-1 mice were purchased from Charles River Laboratories. Mice were placed in cages in groups of five. To immunosuppress the mice and allow for the establishment of mucosal infection, 5-FU was given intravenously once every 7 days, starting on day-2. Antibiotics were given in the drinking water in autoclaved bottles to reduce potential confounding secondary bacterial infections. Gentamycin at 0.2 mg/ml, clindamycin at 1 mg/ml, vancomycin 1 mg/ml were added to sterile drinking water. Bottles and drinking water were changed every day. Imipenem is given at 5 mg/mouse (IP, QD). Antibiotics were begun on day-3.
C. albicans #5 was transferred from storage at −80° C. and streaked for isolation on Sabouraud Dextrose Agar plates with chloramphenicol. The plates were incubated at 35° C. for 48 hours. The organisms were inoculated in sterile bottles each containing 100 ml of SAAMF broth and incubated for 48 hours at 35° C. on a gyratory shaker. C. albicans was harvested by transferring the broth culture to sterile 50 ml centrifuge tubes and centrifuged for 15 minutes at 2000 RPM. The cells were washed once with saline and then suspended in saline. The cells were counted using a hemacytometer. Inoculum dilutions were made in sterile water. The final inoculum was 2×10^8 cells/ml of drinking sterile water plus antibiotics. The inoculum viability determined by plating serial dilutions on SDA plates with chloramphenicol was 1.85×10^8 cells per ml. Plates were incubated overnight at 35° C. for verification count of the inoculum.
In the morning before the preparation of the inoculum the drinking bottles were removed 8 hours prior to replacement with the inoculum suspension of C. albicans. The mice were allowed to drink from this suspension for 24 hours at which time the inoculum suspension was removed and replaced with drinking water containing antibiotics (day 0).
Beginning on day 4 postinfection, mice were untreated or treated with either, Surfacine D™ diluent (undiluted), 3% Surfacine D, PEG dilutent or 1% clotrimazole.
PEG 400, 1% clotrimazole in PEG400, or given no treatment. Treatments were done for 10 consecutive days and were given twice daily. Treatments were done by dipping a sterile calcium alginate swab into the solution and then swabbing the oral cavity of the mouse to ensure coverage with the solution. It was not necessary to anesthetize the animals to perform the treatments. Treatment ended on day 13 postinfection.
On day 15 postinfection all surviving mice were euthanatized using CO2 gas. The tongue of each mouse was swabbed with sterile calcium alginate swab and the swab placed in 0.4 ml of 1×PBS. The swab in PBS was vigorously mixed with a vortex mixer to dissolve the alginate and release the organisms into suspension, and two 10-fold dilutions were made and plated in duplicate on SDA without chloramphenicol.
Survival was analyzed using a log rank test and comparative CFU between groups was analyzed using a Mann-Whitney U test. A log10 value of 6.5 was assigned as CFU for data points missing due to the death of the animal. This value is arbitrarily set to be higher than any burden recovered from surviving mice and assures that death is considered as a worse outcome than is survival regardless of burden.

Clc1ccccc1C(c1ccccc1)(c1ccccc1)n1ccnc1 [1% clotrimazole, clotrimazole]
reduction in CFU in comparison with the untreated controls (CFU recovered from the tongue, day 15 postinfection): ~30 fold
ranking among the treatments (in vivo): most effective of the treatments
behavioral observations during treatments (in vivo, po): did not exhibit these behaviors or symptoms
deaths (mice, oral swab twice daily for 10 days, to day 15 postinfection): one
gross pathological appearance of the tongue mucosal surface at necropsy (surviving mice, day 15 postinfection): normal mucosal surface appearance
